Test results published in PubChem BioAssay AID330 (DTP/NCI, 2004).
Several values for one entry are separate records, joined by “and”; a condition that tells them apart may be missing. Identical values can stand only once. Toxic doses and inconclusive results are not listed.

System: P388 leukemia ip, CD2F1 mice, survival T/C
Test: NCI In Vivo Anticancer Drug Screen. Data for tumor model P388 Leukemia (intraperitoneal) in CD2F1 (CDF1) mice
Settings: endpoint: median survival time, higher = longer survival
Procedure, shortened: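 Mice carrying the transplanted tumor received test compound or vehicle. Survival was recorded in each group, and the value is the treated-group measurement divided by that of the vehicle-treated control group.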

[1] = dose: 25.0 mg/kg/injection, schedule: Q01DX005 (ip), vehicle: Klucel (hydroxypropylcellulose) (HPC)
[2] = dose: 50.0 mg/kg/injection, schedule: Q01DX005 (ip), vehicle: Klucel (hydroxypropylcellulose) (HPC)
[3] = dose: 100.0 mg/kg/injection, schedule: Q01DX005 (ip), vehicle: Klucel (hydroxypropylcellulose) (HPC)
[4] = dose: 200.0 mg/kg/injection, schedule: Q01DX005 (ip), vehicle: Klucel (hydroxypropylcellulose) (HPC)
[5] = dose: 50.0 mg/kg/injection, schedule: Q01DX005 (ip), vehicle: saline with Tween-80
[6] = dose: 100.0 mg/kg/injection, schedule: Q01DX005 (ip), vehicle: saline with Tween-80
[7] = dose: 200.0 mg/kg/injection, schedule: Q01DX005 (ip), vehicle: saline with Tween-80
[8] = dose: 100.0 mg/kg/injection, schedule: Q04DX003 (ip), vehicle: Klucel (hydroxypropylcellulose) (HPC)
[9] = dose: 100.0 mg/kg/injection, schedule: Q01DX009 (ip), vehicle: saline with Tween-80
[10] = dose: 200.0 mg/kg/injection, schedule: Q01DX009 (ip), vehicle: saline with Tween-80
[11] = dose: 400.0 mg/kg/injection, schedule: Q01DX009 (ip), vehicle: saline with Tween-80
[12] = dose: 60.0 mg/kg/injection, schedule: Q01DX005 (ip), vehicle: saline with Tween-80
[13] = dose: 120.0 mg/kg/injection, schedule: Q01DX005 (ip), vehicle: saline with Tween-80

## CCCOc1ccc(C(C)c2cc3c(cc2OC)OCO3)cc1 (stereo not given)
[1]
  T/C: 100 % of control
[2]
  T/C: 103 % of control
[3]
  T/C: 103 % of control
[4]
  T/C: 98 % of control

## c1ccc2nc3c(nc2c1)CCCC3
[2]
  T/C: 96 % of control
[3]
  T/C: 109 % of control
[4]
  T/C: 100 % of control

## CCOC(CN=Cc1cc(C)c2[nH]c3ccccc3c2c1C)OCC
[5]
  T/C: 97 % of control
[6]
  T/C: 102 % of control
[7]
  T/C: 102 % of control

## CC(=C\C=N\N(C)c1ccccc1)/C=C1\Cc2ccccc2C1=O
[8]
  T/C: 99 % of control
dose: 200.0 mg/kg/injection, schedule: Q04DX003 (ip), vehicle: Klucel (hydroxypropylcellulose) (HPC)
  T/C: 97 % of control
dose: 400.0 mg/kg/injection, schedule: Q04DX003 (ip), vehicle: Klucel (hydroxypropylcellulose) (HPC)
  T/C: 96 % of control

## Cc1c(COC(=O)NC2CCCCC2)c(COC(=O)NC2CCCCC2)c2n1CCc1ccccc1-2
dose: 12.5 mg/kg/injection, schedule: Q01DX009 (ip), vehicle: distilled water + Tween-80
  T/C: 178 % of control
dose: 25.0 mg/kg/injection, schedule: Q01DX009 (ip), vehicle: distilled water + Tween-80
  T/C: 182 % of control
dose: 50.0 mg/kg/injection, schedule: Q01DX009 (ip), vehicle: distilled water + Tween-80
  T/C: 101 % of control

## c1ccc2c(c1)Nc1ccncc1S2
[9]
  T/C: 100 % of control
dose: 100.0 mg/kg/injection, schedule: Q04DX003 (ip), vehicle: saline with Tween-80
  T/C: 100 % of control
[10]
  T/C: 100 % of control
dose: 200.0 mg/kg/injection, schedule: Q04DX003 (ip), vehicle: saline with Tween-80
  T/C: 100 % of control
[11]
  T/C: 100 % of control

## CCOc1ccc(N=C2C=C(Nc3ccc(OCC)cc3)C(=Nc3ccc(OCC)cc3)C=C2Nc2ccc(OCC)cc2)cc1
[12]
  T/C: 96 % of control
[13]
  T/C: 95 % of control
dose: 240.0 mg/kg/injection, schedule: Q01DX005 (ip), vehicle: saline with Tween-80
  T/C: 92 % of control

## CC(=Nc1ccccc1)c1ccc2ccccc2c1
[9]
  T/C: 95 % of control
[10]
  T/C: 90 % of control
[11]
  T/C: 90 % of control

## OC(c1cc(-c2ccccc2)nc2c1ccc1ccccc12)C1CCCCN1 (stereo not given)
dose: 12.5 mg/kg/injection, schedule: Q01DX005 (ip), vehicle: saline with Tween-80
  T/C: 101 % of control
dose: 25.0 mg/kg/injection, schedule: Q01DX005 (ip), vehicle: saline with Tween-80
  T/C: 97 % of control
[5]
  T/C: 100 % of control
[6]
  T/C: 100 % of control
[7]
  T/C: 107 % of control

## C=C1C(=O)C23C(OC(=O)c4ccc(Br)cc4)C1CCC2C12COC3(O)C(O)C1C(C)(C)CCC2O (stereo not given)
dose: 3.75 mg/kg/injection, schedule: Q01DX009 (ip), vehicle: saline with Tween-80
  T/C: 105 % of control and 106 % of control
dose: 7.5 mg/kg/injection, schedule: Q01DX009 (ip), vehicle: saline with Tween-80
  T/C: 105 % of control and 111 % of control
dose: 15.0 mg/kg/injection, schedule: Q01DX009 (ip), vehicle: saline with Tween-80
  T/C: 111 % of control and 120 % of control
dose: 30.0 mg/kg/injection, schedule: Q01DX009 (ip), vehicle: saline with Tween-80
  T/C: 119 % of control

## NC(CCN[N+](=O)[O-])C(=O)O (stereo not given)
[1]
  T/C: 103 % of control
[2]
  T/C: 97 % of control
[3]
  T/C: 96 % of control
[4]
  T/C: 97 % of control

## O=C([Se]c1[se]c(=[Se])[se]c1[Se]C(=O)c1ccccc1)c1ccccc1
dose: 7.5 mg/kg/injection, schedule: Q01DX005 (ip), vehicle: saline with Tween-80
  T/C: 97 % of control
dose: 15.0 mg/kg/injection, schedule: Q01DX005 (ip), vehicle: saline with Tween-80
  T/C: 105 % of control
dose: 30.0 mg/kg/injection, schedule: Q01DX005 (ip), vehicle: saline with Tween-80
  T/C: 105 % of control
[5]
  T/C: 88 % of control

## O=c1nc(Oc2ccc(Cl)cc2Cl)oc2cc(Cl)ccc12
[12]
  T/C: 94 % of control
[13]
  T/C: 94 % of control

## CCC[CH2][Sn]([CH2]CCC)[CH2]CCC.CCC[CH2][Sn]([CH2]CCC)[CH2]CCC
dose: 1.56 mg/kg/injection, schedule: Q04DX002 (ip), vehicle: saline with Tween-80
  T/C: 103 % of control
dose: 3.12 mg/kg/injection, schedule: Q04DX002 (ip), vehicle: saline with Tween-80
  T/C: 117 % of control
dose: 6.25 mg/kg/injection, schedule: Q04DX002 (ip), vehicle: saline with Tween-80
  T/C: 103 % of control and 109 % of control
[8]
  T/C: 118 % of control
